{
  "source": "patent US11369587B2",
  "about": "“Injectable pharmaceutical composition of tecovirimat and preparation method thereof” (priority 2016, dated 2022)",
  "key": {"[1]": {"type": "physicochemical", "details": "ternary solubilizing composition of Tecovirimat, cyclodextrin and Meglumine", "experimental": "An excessive amount of Tecovirimat was added to an aqueous solution comprising meglumine and cyclodextrin at a different ratio to form a suspension. The suspension was placed in a constant-temperature incubation shaker, and was shaken at a temperature of 25±1° C., 37±1° C. and 60±1° C. for 72 h, respectively. After reaching equilibrium, the suspension was filtered through a 0.45 μm hydrophilic filter membrane to obtain a filtrate. After the filtrate was properly diluted with an acetonitrile-water (50:50, v/v) solution, the absorbance was measured at 224 nm, and the solubility of Tecovirimat was calculated. The corresponding solubility curve was plotted by using the solubility of the drug as the ordinate, and using the concentration of cyclodextrin and/or meglumine as the abscissa."}, "[2]": {"details": "20%-40% (w/v) hydroxypropyl-cyclodextrin (HP-3-CD) at 37° C.; cited from earlier work"}},
  "data": [
    {"smiles": "O=C(NN1C(=O)[C@@H]2[C@@H]3C=C[C@@H]([C@H]4C[C@@H]34)[C@@H]2C1=O)c1ccc(C(F)(F)F)cc1", "note": "[Tecovirimat, 4-trifluoromethyl-N-(3,3a,4,4a,5,5a,6,6a-octahydro-1,3-dioxo-4,6-ethenocycloprop[f]isoindol-2(1H)-yl)-benzamide]", "values": [
      {"measurement": "maximal solubility", "setting": "[1]", "value": "up to 152 mg/ml"},
      {"measurement": "solubility", "setting": "[2]", "value": "1500 to 11000", "unit": "µg/mL"}
    ]}
  ]
}
